Tested on: JEV
Assay: JEV replication in BHK-21 cells, viral RNA by qRT-PCR
Assay type: cell-based
Conditions: for IC50: BHK-21, 24 h, read-out: IC50, reduction of JEV viral RNA
Method: Therefore, we sought to evaluate the efficacy of these compounds against JEV to assess their broad-spectrum anti-viral action against flaviviruses.
BHK-21 cells were seeded in a 24-well cell culture plate at a density of (0.25 × 10^6 cells/well) with regular growth medium containing DMEM + 10% FBS 1 day prior to infection in triplicate. Once the cells reached 85%–90% confluence, they were infected with DENV2 and JEV virus inoculum comprising DMEM + 2% FBS and 10 µM of the compound at an MOI of 0.1. Cells were incubated for 1.5 h at 37 °C with the virus-compound inoculum, with gentle rocking every 10 min to ensure even coverage and prevent the cellular monolayer from drying. […] The cell culture supernatant was aspirated and washed with PBS, and the cellular monolayer was used for viral RNA isolation.
Total cellular RNA was extracted from BHK-21 cells using TRIzol reagent, according to the manufacturer’s instructions (Ambion Life Technologies, USA). RNA quantity and integrity were determined prior to use on a NanoDrop spectrophotometer (Thermo Fisher Scientific). Then, 1 µg of total RNA from each experimental sample was used to synthesize cDNA by reverse transcriptase (RT) by incubating the RNAs with Moloney murine leukemia virus (M-MuLV) RT, with specific RT primer, 5′-[…]-3′ (Tm = 63 °C), and deoxynucleoside triphosphates (dNTPs) (New England Biolabs) at 42 °C for 50 min, followed by inactivation at 70 °C for 15 min.
To quantify the viral RNA copy number, quantitative RT-PCR (qRT-PCR) was performed in duplicate using iTaq Universal SYBR Green Supermix (Bio-Rad). The cDNAs used for qPCR analysis were prepared using Power SYBR Green PCR Master Mix (Bio-Rad, #172–5125) in a QuantStudio5 Applied Biosystems real-time PCR system. […] Delta Ct for both control and compound-treated samples was determined and subsequently analyzed by determining the delta Ct to determine the mRNA expression of target genes in control vs treated samples.

## COc1ccc(-c2csc(N/N=C(\C)c3ccc(O)cc3)n2)cc1 [3aq]
  IC50: 1.03 ± 0.21 µM

## COc1ccc(-c2csc(N/N=C(\C)c3cc(O)cc(O)c3)n2)cc1 [3au]
  IC50: 1.16 ± 0.16 µM
JEV, BHK-21 cells, qRT-PCR IC50
  SI, selectivity index (CC50/IC50): 67.8

— publication PMC11963559, “Identification of novel thiazole derivatives as flaviviral protease inhibitors effective against Dengue (DENV2) and Japanese encephalitis viruses” (Antimicrobial Agents and Chemotherapy, 2025)
